Measurements from patent US11753445B2, “Therapeutic peptides” (COHBAR, INC., priority 2016, dated 2023).
Peptide text beside a SMILES is read from it.

Test system: 3T3-L1 Adipocytes
Assay: Free fatty acid levels in cultured mouse 3T3-L1 adipocytes, isoproterenol stimulated (Example 2)
Type: cell-based
Conditions: test peptides 25 μM; isoproterenol 1 nM
Method in brief: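 3T3-L1 cells differentiated 12–17 days into adipocytes, then exposed to test peptides at 25 μM final for 18–20 h, then 1 h, then 3 h with isoproterenol (1 nM) at 37 °C. Free fatty acids in the medium measured colorimetrically at 540 nm, corrected for untreated background and expressed relative to isoproterenol-only cells.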

Compound	Free Fatty Acid Levels in 3T3-L1 Adipocytes Expressed as a Percent of Isoproterenol Control: Percent of Control Value [%]
CC[C@H](C)[C@H](NC(=O)[C@H](Cc1ccc(O)cc1)NC(=O)CNC(=O)[C@H](CCSC)NC(=O)[C@H](CCC(=O)O)NC(=O)[C@H](CCC(N)=O)NC(=O)[C@H](Cc1c[nH]c2ccccc12)NC(=O)[C@H](CCCNC(=N)N)NC(=O)[C@@H](N)CCSC)C(=O)N[C@@H](Cc1ccccc1)C(=O)N[C@@H](Cc1ccc(O)cc1)C(=O)N1CCC[C@H]1C(=O)N[C@H](C)C(=O)N[C@@H](CCCCN)C(=O)N[C@@H](CC(C)C)C(=O)N[C@@H](CCCNC(=N)N)C(=O)O [compound 148] (HELM PEPTIDE1{M.R.W.Q.E.M.G.Y.I.F.Y.P.[dA].K.L.R}$$$$V2.0)	25.0
Ac-MRWQEMGYIFYPRKER-NH2 [compound 196]	80.5
H-ERWQEMGYIFYPRKLR-OH [compound 168]	52.2
CC[C@H](C)[C@H](NC(=O)[C@H](Cc1ccc(O)cc1)NC(=O)CNC(=O)[C@H](CCSC)NC(=O)[C@H](CCC(=O)O)NC(=O)[C@H](CCC(N)=O)NC(=O)[C@H](Cc1c[nH]c2ccccc12)NC(=O)[C@H](CCCNC(=N)N)NC(=O)[C@@H](N)CCSC)C(=O)N[C@H](C)C(=O)N[C@@H](Cc1ccc(O)cc1)C(=O)N1CCC[C@H]1C(=O)N[C@@H](CCCNC(=N)N)C(=O)N[C@@H](CCCCN)C(=O)N[C@@H](CC(C)C)C(=O)N[C@@H](CCCNC(=N)N)C(=O)O [compound 145] (HELM PEPTIDE1{M.R.W.Q.E.M.G.Y.I.[dA].Y.P.R.K.L.R}$$$$V2.0)	50.2
CC[C@H](C)[C@H](NC(=O)[C@H](Cc1ccc(O)cc1)NC(=O)CNC(=O)[C@H](C)NC(=O)[C@H](CCC(=O)O)NC(=O)[C@H](CCC(N)=O)NC(=O)[C@H](Cc1c[nH]c2ccccc12)NC(=O)[C@H](CCCNC(=N)N)NC(=O)[C@@H](C)N)C(=O)N[C@@H](Cc1ccccc1)C(=O)N[C@@H](CCC(=O)O)C(=O)N1CCC[C@H]1C(=O)N[C@@H](CCCNC(=N)N)C(=O)O [compound 244] (HELM PEPTIDE1{[dA].R.W.Q.E.A.G.Y.I.F.E.P.R}$$$$V2.0)	90.3
H-MRWQEMGYIFYPRKLK-OH [compound 124]	68.9
H-MRWNEMGYIFYPRKLR-OH [compound 127]	55.6
H-MRWQEMEYIFYPRKLR-OH [compound 173]	43.9
Ac-MRWQDMGYIFYPRRLR-NH2 [compound 132]	102.6
Ac-MRWQEMGYIFYPKKLR-NH2 [compound 129]	82.5
H-MEWQEMGYIFYPRKLR-OH [compound 169]	49.2
CC[C@H](C)[C@@H]1NC(=O)[C@H](Cc2ccc(O)cc2)NC(=O)CNC(=O)[C@H](CCSC)NC(=O)[C@@H](NC(=O)[C@H](CCC(N)=O)NC(=O)[C@H](Cc2c[nH]c3ccccc23)NC(=O)[C@H](CCCNC(=N)N)NC(=O)[C@@H](N)CCSC)CCC(=O)NCCCC[C@@H](C(=O)N[C@@H](CCCNC(=N)N)C(=O)N[C@@H](CCCCN)C(=O)N[C@@H](CC(C)C)C(=O)N[C@@H](CCCNC(=N)N)C(=O)O)NC(=O)[C@H](Cc2ccc(O)cc2)NC(=O)[C@H](Cc2ccccc2)NC1=O [compound 224] (HELM PEPTIDE1{M.R.W.Q.E.M.G.Y.I.F.Y.K.R.K.L.R}$PEPTIDE1,PEPTIDE1,5:R3-12:R3$$$V2.0)	56.2
CC[C@H](C)[C@H](NC(=O)[C@H](Cc1ccc(O)cc1)NC(=O)CNC(=O)[C@H](CCC(=O)O)NC(=O)[C@H](CCC(=O)O)NC(=O)[C@H](CCC(N)=O)NC(=O)[C@H](Cc1c[nH]c2ccccc12)NC(=O)[C@H](CCCNC(=N)N)NC(=O)[C@@H](C)N)C(=O)N[C@@H](C)C(=O)N[C@@H](Cc1ccc(O)cc1)C(=O)N1CCC[C@H]1C(=O)N[C@@H](CCCNC(=N)N)C(=O)N[C@@H](CCCCN)C(=O)N[C@@H](CC(C)C)C(=O)N[C@H](C)C(=O)O [compound 237] (HELM PEPTIDE1{[dA].R.W.Q.E.E.G.Y.I.A.Y.P.R.K.L.[dA]}$$$$V2.0)	85.6
CC[C@H](C)[C@H](NC(=O)[C@H](Cc1ccc(O)cc1)NC(=O)CNC(=O)[C@H](CCSC)NC(=O)[C@H](CCC(=O)O)NC(=O)[C@H](CCC(N)=O)NC(=O)[C@H](Cc1c[nH]c2ccccc12)NC(=O)[C@H](CCCNC(=N)N)NC(=O)[C@H](CCSC)NC(C)=O)C(=O)N[C@@H](Cc1ccccc1)C(=O)N[C@@H](Cc1ccc(O)cc1)C(=O)N1CCC[C@H]1C(=O)N[C@@H](CCCNC(=N)N)C(=O)N[C@@H](CCCCN)C(=O)N[C@H](C)C(=O)N[C@@H](CCCNC(=N)N)C(N)=O [compound 166] (HELM PEPTIDE1{[ac].M.R.W.Q.E.M.G.Y.I.F.Y.P.R.K.[dA].R.[am]}$$$$V2.0)	78.0
H-MKWQEMGYIFYPRKLR-OH [compound 122]	52.1
Ac-MKWQEMGYIFYPRKLR-NH2 [compound 128]	90.0
Ac-MRWQEMGYIFYERKLR-NH2 [compound 193]	71.2

Compound	Free Fatty Acid Levels in 3T3-L1 Adipocytes Expressed as a Percent of Isoproterenol Control: Percent of Control Value [%]
Ac-MRWQEMGEIFYPRKLR-NH2 [compound 189]	87.6
Ac-MRWQEMGYIFYPRKLE-NH2 [compound 197]	84.6
Ac-MRWQEMGYIFYPEKLR-NH2 [compound 194]	107.2
Ac-MRWQEMGYIFYPRALR-NH2 [compound 35]	31.3
CC[C@H](C)[C@H](NC(=O)[C@H](Cc1ccc(O)cc1)NC(=O)CNC(=O)[C@H](CCC(=O)O)NC(=O)[C@H](CCC(=O)O)NC(=O)[C@H](CCC(N)=O)NC(=O)[C@H](Cc1c[nH]c2ccccc12)NC(=O)[C@H](CCCNC(=N)N)NC(=O)[C@@H](C)N)C(=O)N[C@@H](C)C(=O)N[C@@H](Cc1ccc(O)cc1)C(=O)N1CCC[C@H]1C(=O)N[C@@H](CCCNC(=N)N)C(=O)O [compound 238] (HELM PEPTIDE1{[dA].R.W.Q.E.E.G.Y.I.A.Y.P.R}$$$$V2.0)	52.9
CC[C@H](C)[C@H](NC(=O)[C@H](Cc1ccc(O)cc1)NC(=O)CNC(=O)[C@H](CCSC)NC(=O)[C@H](CCC(=O)O)NC(=O)[C@H](CCC(N)=O)NC(=O)[C@H](Cc1c[nH]c2ccccc12)NC(=O)[C@H](CCCNC(=N)N)NC(=O)[C@@H](N)CCSC)C(=O)N[C@@H](Cc1ccccc1)C(=O)N[C@@H](Cc1ccc(O)cc1)C(=O)N1CCC[C@H]1C(=O)N[C@@H](CCCNC(=N)N)C(=O)N[C@@H](CCCCN)C(=O)N[C@@H](CC(C)C)C(=O)N[C@H](C)C(=O)O [compound 151] (HELM PEPTIDE1{M.R.W.Q.E.M.G.Y.I.F.Y.P.R.K.L.[dA]}$$$$V2.0)	47.9
CC[C@H](C)[C@H](NC(=O)[C@H](Cc1ccc(O)cc1)NC(=O)CNC(=O)[C@H](CCSC)NC(=O)[C@H](CCC(=O)O)NC(=O)[C@@H](C)NC(=O)[C@H](Cc1c[nH]c2ccccc12)NC(=O)[C@H](CCCNC(=N)N)NC(=O)[C@@H](N)CCSC)C(=O)N[C@@H](Cc1ccccc1)C(=O)N[C@@H](Cc1ccc(O)cc1)C(=O)N1CCC[C@H]1C(=O)N[C@@H](CCCNC(=N)N)C(=O)N[C@@H](CCCCN)C(=O)N[C@@H](CC(C)C)C(=O)N[C@@H](CCCNC(=N)N)C(=O)O [compound 139] (HELM PEPTIDE1{M.R.W.[dA].E.M.G.Y.I.F.Y.P.R.K.L.R}$$$$V2.0)	58.1
H-MRWQEMGEIFEPRKLR-OH [compound 134]	56.2
H-MRWQEMGYIFYP-OH [compound 48]	57.1
H-MRWQDMGYIFYPRRLR-OH [compound 126]	55.6
Ac-LRWQEMGYIFYPLRKR-NH2 [compound 109]	76.6
Ac-MRWQEMEYIFYPRKLR-NH2 [compound 188]	86.5
CC[C@H](C)[C@H](NC(=O)[C@H](Cc1ccc(O)cc1)NC(=O)CNC(=O)[C@H](CCSC)NC(=O)[C@H](CCC(=O)O)NC(=O)[C@H](CCC(N)=O)NC(=O)[C@H](Cc1c[nH]c2ccccc12)NC(=O)[C@H](CCCNC(=N)N)NC(=O)[C@@H](C)NC(C)=O)C(=O)N[C@@H](Cc1ccccc1)C(=O)N[C@@H](Cc1ccc(O)cc1)C(=O)N1CCC[C@H]1C(=O)N[C@@H](CCCNC(=N)N)C(=O)N[C@@H](CCCCN)C(=O)N[C@@H](CC(C)C)C(=O)N[C@@H](CCCNC(=N)N)C(N)=O [compound 152] (HELM PEPTIDE1{[ac].[dA].R.W.Q.E.M.G.Y.I.F.Y.P.R.K.L.R.[am]}$$$$V2.0)	81.9
Ac-MRWAEMGYIFYPRKLR-NH2 [compound 25]	27.8
H-MRWQEMGEIFYPRKLR-OH [compound 174]	38.8
Ac-MRWQEMGEIFEPRKLR-NH2 [compound 135]	79.0
